# Assay results from US4545991A, “Difficidin and derivative antibacterials” (Merck & Co., Inc., priority 1983, dated 1985).
# Like-named read-outs stand apart in the source and are kept apart here.
# Legend:
# Prot. mirabilis Gm^R = assay: MIC, in vitro agar dilution assay, aerobic bacteria (Table II); type: cell-based; settings: Proteus mirabilis, 10^6 CFU per spot, read-out: MIC
# [1] = test system: B. thetaiotaomicron Clind^r; assay: MIC, in vitro agar dilution assay, anaerobic bacteria (Table III); type: cell-based; settings: Bacteroides thetaiotaomicron, 10^6 CFU per spot, read-out: MIC
# Propionibacterium acnes = assay: as above; type: cell-based; settings: Cutibacterium acnes, 10^6 CFU per spot, read-out: MIC
# E. coli TEM 2^+ = assay: MIC, in vitro agar dilution assay, aerobic bacteria (Table II); type: cell-based; settings: Escherichia coli
# Prot. morganii Sm^R = assay: as above; type: cell-based; settings: Morganella morganii
# C. ramosum = assay: MIC, in vitro agar dilution assay, anaerobic bacteria (Table III); type: cell-based; settings: Thomasclavelia ramosa, 10^6 CFU per spot, read-out: MIC
# B. ovatus Pen^r = assay: as above; type: cell-based; settings: Bacteroides ovatus, 10^6 CFU per spot, read-out: MIC
# [2] = test system: B. distasonis Pen^r Fox^r Clind^r; assay: as above; type: cell-based; settings: Parabacteroides distasonis, 10^6 CFU per spot, read-out: MIC
# [3] = test system: Bifidobacterium dentium Fox^r; assay: as above; type: cell-based; settings: Bifidobacterium dentium
# Ent. cloacae P99^+ = assay: MIC, in vitro agar dilution assay, aerobic bacteria (Table II); type: cell-based; settings: Enterobacter cloacae
# Prot. vulgaris = assay: as above; type: cell-based; settings: Proteus vulgaris, 10^6 CFU per spot, read-out: MIC
# [4] = test system: B. distasonis Pen^r Fox^r; assay: MIC, in vitro agar dilution assay, anaerobic bacteria (Table III); type: cell-based; settings: Parabacteroides distasonis, 10^6 CFU per spot, read-out: MIC
# K. pneumoniae Kl^+ = assay: MIC, in vitro agar dilution assay, aerobic bacteria (Table II); type: cell-based; settings: Klebsiella pneumoniae, 10^6 CFU per spot, read-out: MIC
# [5] = test system: Bacteriodes fragilis Metr^r, Pen^r; assay: MIC, in vitro agar dilution assay, anaerobic bacteria (Table III); type: cell-based; settings: 10^6 CFU per spot, read-out: MIC
# Strep. faecalis = assay: MIC, in vitro agar dilution assay, aerobic bacteria (Table II); type: cell-based; settings: Enterococcus faecalis, 10^6 CFU per spot, read-out: MIC
# Description: (§1) Further evaluations of the antibacterial spectrum of difficidin and oxydifficidin were undertaken, especially as compared to the antibacterial spectrum of the valuable antibiotic cefoxitin, which is well known for its wide spectrum of antibacterial activity. An in vitro agar dilution assay was used, inoculum 10^6 CFU per spot. Table II below illustrates the results obtained for various aerobic bacteria, and Table III illustrates the results obtained for various anaerobic bacteria.
# S. aureus = assay: as above; type: cell-based; settings: Staphylococcus aureus, 10^6 CFU per spot, read-out: MIC
# Description: as §1
# E. coli = assay: as above; type: cell-based; settings: Escherichia coli, 10^6 CFU per spot, read-out: MIC
# Description: as §1
# Ps. aeruginosa RPL 11^+ = assay: as above; type: cell-based; settings: Pseudomonas aeruginosa
# [6] = test system: C. difficile Clind^r, Fox^r; assay: MIC, in vitro agar dilution assay, anaerobic bacteria (Table III); type: cell-based; settings: Clostridioides difficile, 10^6 CFU per spot, read-out: MIC
# B. fragilis Pen^r = assay: as above; type: cell-based; settings: Bacteroides fragilis, 10^6 CFU per spot, read-out: MIC
# [7] = test system: Clostridium perfringens NCCLS control strain; assay: microbe, parasite or virus in culture; type: cell-based; settings: Clostridium perfringens
# Veillonella alcalescens = assay: MIC, in vitro agar dilution assay, anaerobic bacteria (Table III); type: cell-based; settings: Veillonella parvula, 10^6 CFU per spot, read-out: MIC
# [8] = test system: B. fragilis NCCLS control strain; assay: as above; type: cell-based; settings: Bacteroides fragilis, 10^6 CFU per spot, read-out: MIC
# S. aureus Gm^R Meth^R = assay: MIC, in vitro agar dilution assay, aerobic bacteria (Table II); type: cell-based; settings: Staphylococcus aureus
# Ps. aeruginosa [9] = assay: as above; type: cell-based; settings: Pseudomonas aeruginosa
# [10] = test system: Peptostreptococcus anaerobius; assay: MIC, in vitro agar dilution assay, anaerobic bacteria (Table III); type: cell-based; settings: 10^6 CFU per spot, read-out: MIC
# Actinomyces naeslundii = assay: as above; type: cell-based; settings: 10^6 CFU per spot, read-out: MIC
# E. coli DC 2 = assay: MIC, in vitro agar dilution assay, aerobic bacteria (Table II); type: cell-based; settings: Escherichia coli, DC2
# C. difficile Fox^r = assay: MIC, in vitro agar dilution assay, anaerobic bacteria (Table III); type: cell-based; settings: Clostridioides difficile
# Sal. typhimurium = assay: MIC, in vitro agar dilution assay, aerobic bacteria (Table II); type: cell-based; settings: Salmonella enterica, 10^6 CFU per spot, read-out: MIC
# [11] = test system: B. thetaiotaomicron Clind^r, NCCLS control strain; assay: MIC, in vitro agar dilution assay, anaerobic bacteria (Table III); type: cell-based; settings: Bacteroides thetaiotaomicron, 10^6 CFU per spot, read-out: MIC
# Ser. marcescens = assay: MIC, in vitro agar dilution assay, aerobic bacteria (Table II); type: cell-based; settings: Serratia marcescens, 10^6 CFU per spot, read-out: MIC
# [12] = test system: Fusobacterium mortiferum Fox^r; assay: MIC, in vitro agar dilution assay, anaerobic bacteria (Table III); type: cell-based; settings: 10^6 CFU per spot, read-out: MIC
# E. coli TEM 2^+ DC 2 = assay: MIC, in vitro agar dilution assay, aerobic bacteria (Table II); type: cell-based; settings: Escherichia coli
# [13] = test system: B. fragilis Clind^r Fox^r Tet^r; assay: MIC, in vitro agar dilution assay, anaerobic bacteria (Table III); type: cell-based; settings: Bacteroides fragilis, 10^6 CFU per spot, read-out: MIC
# Ent. aerogenes = assay: MIC, in vitro agar dilution assay, aerobic bacteria (Table II); type: cell-based; settings: Klebsiella aerogenes
# Eubacterium limosum = assay: MIC, in vitro agar dilution assay, anaerobic bacteria (Table III); type: cell-based; settings: 10^6 CFU per spot, read-out: MIC
# Ent. cloacae P99^- = assay: MIC, in vitro agar dilution assay, aerobic bacteria (Table II); type: cell-based; settings: Enterobacter cloacae
# Ps. aeruginosa [14] = assay: as above; type: cell-based; settings: Pseudomonas aeruginosa; remark: listed apart in the source
# [15] = test system: Klebsiella pneumoniae MB 4005; assay: standard mouse protection test, experimental systemic infection; type: in vivo, CD1 female mice; settings: Klebsiella pneumoniae, MB4005, ip, 168 h, × 2 i.p. doses (immediately after infection and 6 hours later), 7 days
# Description: The antibacterial efficacy of difficidin and its derivatives was further determined in standard mouse protection tests. An experimental systemic infection was produced in CD1 female mice (Charles River Breeding Laboratories, Wilmington, MA) by the intraperitoneal injection of a suitably diluted broth culture of Klebsiella pneumoniae MB 4005. The test antibacterial compounds and the control drug (streptomycin) were administered parenterally (intraperitoneally) immediately after infection and again 6 hours later. At least 4 fourfold dilutions of each agent were tested. There were 5 mice at each dose level. […] Under the conditions of the test, all infected untreated mice died within 48 hours.
# Mice were protected by the administration of the test antibacterial compounds or streptomycin at the median effective doses shown in Table IV below.
smiles,measurement,setting,value
"CO[C@@]1(NC(=O)Cc2cccs2)C(=O)N2C(C(=O)O)=C(COC(N)=O)CS[C@@H]21 [Cefoxitin, cefoxitin, reference compound]",MIC,Prot. mirabilis Gm^R,32 µg/mL
same,MIC,[1],16 µg/mL
same,MIC,Propionibacterium acnes,≤ 0.008 µg/mL
same,MIC,E. coli TEM 2^+,4 µg/mL
same,MIC,Prot. morganii Sm^R,16 µg/mL
same,MIC,C. ramosum,4 µg/mL
same,MIC,B. ovatus Pen^r,8 µg/mL
same,MIC,[2],16 µg/mL
same,MIC,[3],4 µg/mL
same,MIC,Ent. cloacae P99^+,> 128 µg/mL
same,MIC,Prot. vulgaris,16 µg/mL
same,MIC,[4],64 µg/mL
same,MIC,K. pneumoniae Kl^+,4 µg/mL
same,MIC,[5],2 µg/mL
same,MIC,Strep. faecalis,> 128 µg/mL
same,MIC,S. aureus; first unmarked strain,2 µg/mL
same,MIC,S. aureus; second unmarked strain,2 µg/mL
same,MIC,E. coli,> 128 µg/mL
same,MIC,Ps. aeruginosa RPL 11^+,> 128 µg/mL
same,MIC,[6],64 µg/mL
same,MIC,B. fragilis Pen^r,8 µg/mL
same,MIC,[7],0.5 µg/mL
same,MIC,Veillonella alcalescens,0.5 µg/mL
same,MIC,[8],4 µg/mL
same,MIC,S. aureus Gm^R Meth^R,> 128 µg/mL
same,MIC,Ps. aeruginosa [9],> 128 µg/mL
same,MIC,[10],≤ 0.008 µg/mL
same,MIC,Actinomyces naeslundii,0.015 µg/mL
same,MIC,E. coli DC 2,1 µg/mL
same,MIC,C. difficile Fox^r,128 µg/mL
same,MIC,Sal. typhimurium,8 µg/mL
same,MIC,[11],16 µg/mL
same,MIC,Ser. marcescens,64 µg/mL
same,MIC,[12],16 µg/mL
same,MIC,E. coli TEM 2^+ DC 2,1 µg/mL
same,MIC,[13],32 µg/mL
same,MIC,Ent. aerogenes,> 128 µg/mL
same,MIC,Eubacterium limosum,0.25 µg/mL
same,MIC,Ent. cloacae P99^-,16 µg/mL
same,MIC,Ps. aeruginosa [14],> 128 µg/mL
"[H]/N=C(/N)N[C@H]1[C@H](O)[C@@H](O)[C@H](O[C@@H]2O[C@@H](C)[C@](O)(C=O)[C@H]2O[C@@H]2O[C@@H](CO)[C@H](O)[C@@H](O)[C@@H]2NC)[C@@H](N/C(N)=N\[H])[C@@H]1O [Streptomycin, streptomycin, reference compound]",ED50,[15]; Test No. 1,0.38 mg/kg
same,ED50,[15]; Test No. 2,1.41 mg/kg
same,ED50,[15]; Test No. 3,0.38 mg/kg
